What follows are compounds tested against T1, human Cot/Tpl2 kinase (Homo sapiens, UniProt P41279) (assay: Tpl2/Cot kinase assay, GST-MEK1 phosphorylation detected by ELISA (DELFIA Eu)). Conditions: Table 1; 0.4 nM Tpl2, 35 nM GST-MEK1, 50 uM ATP, 1 h at 30° C.
T1 construct: human Cot/Tpl2 kinase construct encoding residues 30-398; 6His (N); made in house; host or cells: Sf9 insect cells (baculovirus system, BD Biosciences)
Assay type: biochemical
Experimental: Sf9 cells expressing the kinase were lysed in 50 mM NaPhosphate pH=8; 300 mM NaCl; 5 mM imidazole; 0.1 mM EGTA; 25 mM beta-glycerophosphate; 1% TX-100, 1% glycerol; 6 mM beta-mercaptoethanol and protease inhibitors. The lysate was clarified by centrifugation and was loaded onto a Ni-Sepharose column. The column was washed with 50 mM NaPhosphate pH=8; 300 mM NaCl; 15 mM imidazole; 1% glycerol; and 6 mM beta-mercaptoethanol. His-Tpl2 was eluted with 50 mM NaPhosphate pH=8; 300 mM NaCl; 250 mM imidazole; 1% glycerol; and 6 mM beta-mercaptoethanol. The eluted protein was further purified by size exclusion chromatography. Fractions corresponding to monomeric Tpl2 were then used in the assay.
Tpl2/Cot activity was directly assayed using GST-MEK1 as a substrate. GST-MEK1 phosphorylation on serine residues 217 and 221 was detected by ELISA. 0.4 nM Tpl2 was incubated with 35 nM GST-MEK1 in a kinase reaction buffer containing 20 mM MOPS pH=7.2; 50 uM ATP; 20 mM MgCl2; 1 mM DTT; 25 mM β-glycerophosphate; 5 mM EGTA; and 1 mM sodium orthovanadate for 1 h at 30° C. The compounds of the inventions solubilized in 100% DMSO were pre-diluted in assay buffer so that the final concentration of DMSO in the reaction was 1%. The kinase reaction was carried out in 100 ul volume on 96 well plates. The kinase reaction was then stopped with the addition of 100 mM EDTA. […] After a 1 hour incubation at room temperature, the detection plate was washed 4 times with TBST (TBS+0.05% Tween 20) and then incubated for another hour at room temperature with anti phospho-MEK1 antibody (Cell Signaling) 1:1000 in 10 mM MOPS 7.5; 150 mM NaCl; 0.05% Tween 20; 0.1% Gelatin; 0.02% NaN3; and 1% BSA. The detection plate was washed again and incubated for 30 min with DELFIA Europium (Eu) labeled goat anti-rabbit IgG (Perkin-Elmer), 1:4000 in the same buffer used for the primary incubation. After a final wash, Eu detection solution was added to each well and the Eu signal was measured in a Wallac Victor^2 Multilabel Counter. IC50 calculations were preformed using the XLfit software package (IDBS, Guildford, UK).

T1 sequence (P41279 30-398): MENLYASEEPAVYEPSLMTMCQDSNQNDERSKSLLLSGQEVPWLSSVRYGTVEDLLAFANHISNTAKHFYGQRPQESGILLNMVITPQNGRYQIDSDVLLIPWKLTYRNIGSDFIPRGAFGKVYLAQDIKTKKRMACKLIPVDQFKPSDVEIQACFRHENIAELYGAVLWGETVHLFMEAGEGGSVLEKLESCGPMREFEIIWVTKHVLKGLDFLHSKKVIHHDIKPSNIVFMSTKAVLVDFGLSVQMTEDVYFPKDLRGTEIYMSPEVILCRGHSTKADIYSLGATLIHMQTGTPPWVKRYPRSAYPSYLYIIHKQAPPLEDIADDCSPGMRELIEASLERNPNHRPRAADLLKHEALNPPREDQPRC

IC50 [µM]	Compound
> 10	N#Cc1cnc2cnc(NCCN3CCOCC3)cc2c1Nc1cccc(C(=O)O)c1 [Example 84, 3-(3-cyano-6-(2-morpholinoethylamino)-1,7-naphthyridin-4-ylamino)benzoic acid]
> 10	CS(=O)(=O)Nc1cccc(Nc2c(C#N)cnc3cnc(NCCN4CCOCC4)cc23)c1 [Example 85, N-(3-(3-cyano-6-(2-morpholinoethylamino)-1,7-naphthyridin-4-ylamino)phenyl)methanesulfonamide]
> 10	N#Cc1cnc2cnc(NCCN3CCOCC3)cc2c1Nc1cccc(C(N)=O)c1 [Example 86, 3-(3-cyano-6-(2-morpholinoethylamino)-1,7-naphthyridin-4-ylamino)benzamide]
> 40	N#Cc1cnc2cnc(NCCN3CCOCC3)cc2c1Nc1ccc(-c2ccccc2)cc1 [Example 87, 4-(1,1′-biphenyl-4-ylamino)-6-[(2-morpholin-4-ylethyl)amino]-1,7-naphthyridine-3-carbonitrile]
7	N#Cc1cnc2cnc(NCCN3CCOCC3)cc2c1Nc1ccc([N+](=O)[O-])cc1 [Example 88, 6-(2-morpholinoethylamino)-4-(4-nitrophenylamino)-1,7-naphthyridine-3-carbonitrile]
> 40	CN(c1ccc(F)c(Cl)c1)c1c(C#N)cnc2cnc(NCCN3CCOCC3)cc12 [Example 89, 4-((3-chloro-4-fluorophenyl)(methyl)amino)-6-(2-morpholinoethylamino)-1,7-naphthyridine-3-carbonitrile]
> 40	CCC(C)(C)Nc1cc2c(Nc3ccc(F)c(Cl)c3)c(C#N)cnc2cn1 [Example 91, 4-(3-chloro-4-fluorophenylamino)-6-(tert-pentylamino)-1,7-naphthyridine-3-carbonitrile]
8	N#Cc1cnc2cnc(Nc3ccc(F)c(Cl)c3)cc2c1NC1CCCC1 [Example 92, 6-(3-chloro-4-fluorophenylamino)-4-(cyclopentylamino)-1,7-naphthyridine-3-carbonitrile]
7.6	N#Cc1cnc2cnc(NC3CCCC3)cc2c1Nc1ccc(F)c(Cl)c1 [Example 94, 4-(3-Chloro-4-fluoro-phenylamino)-6-cyclopentylamino-[1,7]naphthyridine-3-carbonitrile]
0.33	N#Cc1cnc2cnc(NCc3cccnc3)cc2c1Nc1ccccc1 [Example 95, 4-Phenylamino-6-[(pyridin-3-ylmethyl)-amino]-[1,7]naphthyridine-3-carbonitrile]

Same assay, conditions: Table 2; additional representative compounds

IC50 [µM]	Compound
0.2	COc1ccc(CNc2cc3c(Nc4ccc(F)c(Cl)c4)c(C#N)cnc3cn2)cc1 [Example 96, 4-[(3-chloro-4-fluorophenyl)amino]-6-[(4-methoxybenzyl)amino]-1,7-naphthyridine-3-carbonitrile]
> 40	CC(C)c1cccc(Nc2c(C#N)cnc3cnc(F)cc23)c1 [Example 97, 6-fluoro-4-[(3-isopropylphenyl)amino]-1,7-naphthyridine-3-carbonitrile]
> 40	N#Cc1cnc2cnc(F)cc2c1NCc1ccc(F)c(Cl)c1 [Example 98, 4-[(3-chloro-4-fluorobenzyl)amino]-6-fluoro-1,7-naphthyridine-3-carbonitrile]
20	N#Cc1cnc2cnc(F)cc2c1Nc1ccc(Oc2ccccc2)cc1 [Example 99, 6-Fluoro-4-(4-phenoxy-phenylamino)-[1,7]naphthyridine-3-carbonitrile]
> 40	N#Cc1cnc2cnc(F)cc2c1Nc1ccc(C(F)(F)F)cc1 [Example 100, 6-fluoro-4-{[4-(trifluoromethyl)phenyl]amino}-1,7-naphthyridine-3-carbonitrile]
> 40	CC(C)c1ccc(Nc2c(C#N)cnc3cnc(F)cc23)cc1 [Example 101, 6-fluoro-4-[(4-isopropylphenyl)amino]-1,7-naphthyridine-3-carbonitrile]
> 40	N#Cc1cnc2cnc(F)cc2c1Nc1ccc2[nH]ccc2c1 [Example 102, 6-fluoro-4-(1H-indol-5-ylamino)-1,7-naphthyridine-3-carbonitrile]
> 40	N#Cc1cnc2cnc(F)cc2c1Nc1cccc(I)c1 [Example 104, 6-fluoro-4-[(3-iodophenyl)amino]-1,7-naphthyridine-3-carbonitrile]
> 10	N#Cc1cnc2cnc(F)cc2c1Nc1cccc([N+](=O)[O-])c1 [Example 105, 6-fluoro-4-[(3-nitrophenyl)amino]-1,7-naphthyridine-3-carbonitrile]
0.3	N#Cc1cnc2cnc(F)cc2c1Nc1ccc(Cc2ccccc2)cc1 [Example 106, 4-[(4-benzylphenyl)amino]-6-fluoro-1,7-naphthyridine-3-carbonitrile]
> 10	CN(c1ccc(F)c(Cl)c1)c1c(C#N)cnc2cnc(F)cc12 [Example 107, 4-[(3-chloro-4-fluorophenyl)(methyl)amino]-6-fluoro-1,7-naphthyridine-3-carbonitrile]
> 10	CN(C)CCNc1cc2c(Nc3ccc(Cc4ccccc4)cc3)c(C#N)cnc2cn1 [Example 108, 4-[(4-benzylphenyl)amino]-6-{[2-(dimethylamino)ethyl]amino}-1,7-naphthyridine-3-carbonitrile]
0.63	CC(C)(C)Nc1c(C#N)cnc2cnc(NCc3cccnc3)cc12 [Example 110, 4-(tert-butylamino)-6-[(pyridin-3-ylmethyl)amino]-1,7-naphthyridine-3-carbonitrile]
2.8	N#Cc1cnc2cnc(NCc3cccnc3)cc2c1NC1CC1 [Example 111, 4-(cyclopropylamino)-6-[(pyridin-3-ylmethyl)amino]-1,7-naphthyridine-3-carbonitrile]
0.32	N#Cc1cnc2cnc(NCc3cccnc3)cc2c1NC1CCCC1 [Example 112, 4-(cyclopentylamino)-6-[(pyridin-3-ylmethyl)amino]-1,7-naphthyridine-3-carbonitrile]
0.16	N#Cc1cnc2cnc(NCc3cccnc3)cc2c1NC1CCCCCC1 [Example 113, 4-(cycloheptylamino)-6-[(pyridin-3-ylmethyl)amino]-1,7-naphthyridine-3-carbonitrile]
0.47	N#Cc1cnc2cnc(NCc3cccnc3)cc2c1NC1CCCCC1 [Example 114, 4-(cyclohexylamino)-6-[(pyridin-3-ylmethyl)amino]-1,7-naphthyridine-3-carbonitrile]
> 40	CC(Nc1cc2c(Nc3ccc(F)c(Cl)c3)c(C#N)cnc2cn1)c1ccccc1 (stereo not shown) [Example 115, 4-[(3-chloro-4-fluorophenyl)amino]-6-[(1-phenylethyl)amino]-1,7-naphthyridine-3-carbonitrile]
> 40	N#Cc1cnc2cnc(NCc3cccnc3)cc2c1NC1CCNCC1 [Example 116, 4-(piperidin-4-ylamino)-6-[(pyridin-3-ylmethyl)amino]-1,7-naphthyridine-3-carbonitrile]
2.4	N#Cc1cnc2cnc(NCCN3CCN(Cc4ccccc4)CC3)cc2c1Nc1ccc(F)c(Cl)c1 [Example 117, 6-(2-(4-benzylpiperazin-1-yl)ethylamino)-4-(3-chloro-4-fluorophenylamino)-1,7-naphthyridine-3-carbonitrile]
1.2	CC(C)(Nc1cc2c(Nc3ccc(F)c(Cl)c3)c(C#N)cnc2cn1)c1ccccc1 [Example 118, 4-[(3-chloro-4-fluorophenyl)amino]-6-[(1-methyl-1-phenylethyl)amino]-1,7-naphthyridine-3-carbonitrile]

From patent US20060276498A1 (Wyeth, priority 2005, published 2006)
